Activity calls are given as the source filed them. Where only a bound is given, the exact number is not on record here.

Results on two compounds are retold here after ChEMBL document CHEMBL1201862, “PubChem BioAssay data set” (2004).

Assay [1] concerns the target T1, Cyclin-dependent kinase 5/CDK5 activator 1 (Homo sapiens, UniProt Q00535). Briefly: blockade of human CDK5 activity – biochemical, cherry-picked samples, set 2, dose response (AID 504545).
Assay [2] addresses Glycogen synthase kinase-3 alpha (Homo sapiens, UniProt P49840). Briefly: GSK3A enzyme blockers, homolog specificity check – biochemical, microfluidics, dry powder samples, set 2, selectivity assay for GSK3beta inhibitor project, dose response (AID 623978). The format is functional.
For assay [3], the target named is T1, Cyclin-dependent kinase 5/CDK5 activator 1. The experiment in a line: inhibitors of human CDK5 activity – biochemical, microfluidic mobility shift, dry powder, set 2, selectivity assay for GSK3beta inhibitor project, dose response (AID 623979). Type of assay: functional.
A short description of assay [4]: viability loss in THP-1 monocytes – THP-1 cells, cytotoxicity control for Vif-APOBEC3G degradation inhibitor project, dose response (AID 1117359). The format is functional. Conditions: THP-1.
In assay [5] the target is Dual specificity tyrosine-phosphorylation-regulated kinase 1A (Rattus norvegicus, UniProt Q63470). Type of assay: biochemical, Homo sapiens.
The target in assay [6] is Glycogen synthase kinase-3 beta (Homo sapiens, UniProt P49841). Briefly: inhibition of human GSK3B activity – biochemical, microfluidics, dry powder samples, set 2, dose response (AID 623989). The format is functional.
Assay [7] can be described thus: viability loss in HepG2 hepatoma cells – cell-based, ATP luminescence, cherry-pick, activator set 2, cytotoxicity control, dose response (AID 1053143). Type of assay: functional.
Assay [8] deals with Eukaryotic elongation factor 2 kinase (Homo sapiens, UniProt O00418). The format is functional.
Assay [9] has as its target Proto-oncogene tyrosine-protein kinase Src (Homo sapiens, UniProt P12931). The format is functional.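 Note: SRC entry within a kinome-wide kinase profiling panel.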
For assay [10], the target named is Protein-tyrosine kinase 6 (Homo sapiens, UniProt Q13882). Type of assay: functional.
The target in assay [11] is MAP kinase-activated protein kinase 3 (Homo sapiens, UniProt Q16644). Type of assay: functional.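 Note: value comes from a kinome-wide profiling panel in which MAPKAPK3 is one of the panel members.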
Assay [12] deals with Protein kinase C zeta type (Homo sapiens, UniProt Q05513). Type of assay: functional.
The target of assay [13] is Testis-specific serine/threonine-protein kinase 2 (Homo sapiens, UniProt Q96PF2). Type of assay: functional.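 Note: part of the Navigating the Kinome panel, target entry STK22B.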
Assay [14] deals with Cyclin-dependent kinase 1 (Homo sapiens, UniProt P06493). The format is functional.
The target of assay [15] is Dual specificity tyrosine-phosphorylation-regulated kinase 4 (Homo sapiens, UniProt Q9NR20). The format is functional.
The target of assay [16] is Tyrosine-protein kinase Fyn (Homo sapiens, UniProt P06241). The format is functional.
The target in assay [17] is Lymphokine-activated killer T-cell-originated protein kinase (Homo sapiens, UniProt Q96KB5). The format is functional.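 Note: value comes from a kinase panel screen in which TOPK was one of the panel members.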
Assay [18] addresses Protein kinase C gamma type (Homo sapiens, UniProt P05129). The format is functional.
Assay [19] has as its target Cell division cycle 7-related protein kinase (Homo sapiens, UniProt O00311). The format is functional.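 Note: value obtained from a kinome-wide kinase panel.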
Assay [20] concerns the target G protein-coupled receptor kinase 5 (Homo sapiens, UniProt P34947). The experiment in a line: Navigating the Kinome. Panel member name: GPRK5. Type of assay: functional.
Assay [21] addresses Dual specificity tyrosine-phosphorylation-regulated kinase 3 (Homo sapiens, UniProt O43781). Type of assay: functional.
Assay [22] concerns the target Tyrosine-protein kinase receptor UFO (Homo sapiens, UniProt P30530). Type of assay: functional.

T1 sequence (Q00535 whole entry): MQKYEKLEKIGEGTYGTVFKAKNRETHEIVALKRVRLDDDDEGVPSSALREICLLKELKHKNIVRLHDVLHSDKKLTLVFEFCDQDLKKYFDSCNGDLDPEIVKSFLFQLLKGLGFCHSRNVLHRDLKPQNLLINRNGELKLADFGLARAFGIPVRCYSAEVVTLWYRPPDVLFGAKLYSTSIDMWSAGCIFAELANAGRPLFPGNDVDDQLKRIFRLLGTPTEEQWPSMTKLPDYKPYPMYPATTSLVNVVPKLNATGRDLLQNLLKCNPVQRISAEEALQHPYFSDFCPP
T1 sequence (Q15078 whole entry, further chain): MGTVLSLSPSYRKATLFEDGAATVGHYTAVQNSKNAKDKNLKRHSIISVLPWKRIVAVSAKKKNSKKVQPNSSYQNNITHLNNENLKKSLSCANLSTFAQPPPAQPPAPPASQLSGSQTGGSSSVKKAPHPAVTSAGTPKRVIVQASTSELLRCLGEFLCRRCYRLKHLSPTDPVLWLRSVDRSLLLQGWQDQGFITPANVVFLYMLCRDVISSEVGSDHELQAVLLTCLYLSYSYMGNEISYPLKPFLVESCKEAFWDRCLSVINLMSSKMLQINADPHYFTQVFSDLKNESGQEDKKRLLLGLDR
Sequence of Cyclin-dependent kinase 1 (P06493 whole entry): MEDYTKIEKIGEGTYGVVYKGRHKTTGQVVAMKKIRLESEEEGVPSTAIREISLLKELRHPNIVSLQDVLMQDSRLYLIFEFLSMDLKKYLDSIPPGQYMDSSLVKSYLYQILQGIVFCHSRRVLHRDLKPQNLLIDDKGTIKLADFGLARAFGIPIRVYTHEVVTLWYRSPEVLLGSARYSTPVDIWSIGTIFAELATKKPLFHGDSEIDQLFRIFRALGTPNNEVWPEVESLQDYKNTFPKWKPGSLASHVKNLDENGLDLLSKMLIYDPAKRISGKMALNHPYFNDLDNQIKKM
Sequence of Tyrosine-protein kinase receptor UFO (P30530 whole entry): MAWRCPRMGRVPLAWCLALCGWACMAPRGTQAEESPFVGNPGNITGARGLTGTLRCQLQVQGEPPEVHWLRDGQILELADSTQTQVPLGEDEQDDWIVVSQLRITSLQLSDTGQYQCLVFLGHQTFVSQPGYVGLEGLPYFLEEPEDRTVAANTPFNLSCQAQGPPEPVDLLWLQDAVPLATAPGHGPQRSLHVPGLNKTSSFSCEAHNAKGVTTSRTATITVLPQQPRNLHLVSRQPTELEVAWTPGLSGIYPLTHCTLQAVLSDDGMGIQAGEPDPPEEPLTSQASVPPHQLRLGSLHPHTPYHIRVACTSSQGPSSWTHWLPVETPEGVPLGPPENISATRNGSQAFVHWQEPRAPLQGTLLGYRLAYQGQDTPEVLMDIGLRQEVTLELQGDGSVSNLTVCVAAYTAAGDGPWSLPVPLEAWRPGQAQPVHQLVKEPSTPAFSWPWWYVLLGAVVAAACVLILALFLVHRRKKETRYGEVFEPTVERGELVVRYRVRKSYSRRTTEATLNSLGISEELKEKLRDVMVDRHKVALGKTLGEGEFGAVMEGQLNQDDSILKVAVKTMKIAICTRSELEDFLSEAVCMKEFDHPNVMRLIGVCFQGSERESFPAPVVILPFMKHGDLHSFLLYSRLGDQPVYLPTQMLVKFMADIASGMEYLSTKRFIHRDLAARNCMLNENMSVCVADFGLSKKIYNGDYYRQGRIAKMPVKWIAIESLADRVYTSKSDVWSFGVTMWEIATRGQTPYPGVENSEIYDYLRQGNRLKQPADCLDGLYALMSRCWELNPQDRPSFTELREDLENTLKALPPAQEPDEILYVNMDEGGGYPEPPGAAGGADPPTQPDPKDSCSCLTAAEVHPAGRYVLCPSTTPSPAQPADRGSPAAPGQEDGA
Sequence of Dual specificity tyrosine-phosphorylation-regulated kinase 3 (O43781 whole entry): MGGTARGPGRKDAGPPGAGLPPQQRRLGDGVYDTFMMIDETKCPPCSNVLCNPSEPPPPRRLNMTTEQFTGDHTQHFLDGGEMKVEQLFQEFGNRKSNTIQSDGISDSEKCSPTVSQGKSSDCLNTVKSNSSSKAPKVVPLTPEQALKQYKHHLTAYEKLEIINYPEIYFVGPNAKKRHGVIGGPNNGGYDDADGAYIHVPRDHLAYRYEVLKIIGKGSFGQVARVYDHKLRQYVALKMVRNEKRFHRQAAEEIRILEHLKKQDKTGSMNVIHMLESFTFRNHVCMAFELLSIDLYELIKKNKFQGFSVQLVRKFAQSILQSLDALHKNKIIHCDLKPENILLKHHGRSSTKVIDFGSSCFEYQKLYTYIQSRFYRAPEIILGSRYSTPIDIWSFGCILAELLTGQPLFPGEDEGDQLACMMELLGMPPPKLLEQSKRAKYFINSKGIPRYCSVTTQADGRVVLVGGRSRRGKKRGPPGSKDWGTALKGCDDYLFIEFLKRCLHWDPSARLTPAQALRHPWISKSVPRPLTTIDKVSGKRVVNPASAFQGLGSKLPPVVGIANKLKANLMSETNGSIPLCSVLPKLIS
Sequence of Cell division cycle 7-related protein kinase (O00311 whole entry): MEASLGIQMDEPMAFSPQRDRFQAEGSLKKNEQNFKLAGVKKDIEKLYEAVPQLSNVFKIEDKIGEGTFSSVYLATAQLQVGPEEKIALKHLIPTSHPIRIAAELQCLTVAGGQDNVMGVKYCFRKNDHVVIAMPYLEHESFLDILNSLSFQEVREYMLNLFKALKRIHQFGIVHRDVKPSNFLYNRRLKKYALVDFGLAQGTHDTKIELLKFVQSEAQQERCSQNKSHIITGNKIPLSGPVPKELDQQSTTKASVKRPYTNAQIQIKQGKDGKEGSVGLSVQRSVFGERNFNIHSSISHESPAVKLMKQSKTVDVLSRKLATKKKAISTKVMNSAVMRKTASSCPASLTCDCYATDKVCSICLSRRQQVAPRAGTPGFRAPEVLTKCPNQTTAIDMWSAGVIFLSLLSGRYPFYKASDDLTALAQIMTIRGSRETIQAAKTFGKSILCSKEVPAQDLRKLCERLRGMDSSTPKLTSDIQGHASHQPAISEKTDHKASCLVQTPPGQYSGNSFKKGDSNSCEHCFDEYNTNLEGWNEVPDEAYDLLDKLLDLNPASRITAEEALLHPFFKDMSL
Sequence of MAP kinase-activated protein kinase 3 (Q16644 whole entry): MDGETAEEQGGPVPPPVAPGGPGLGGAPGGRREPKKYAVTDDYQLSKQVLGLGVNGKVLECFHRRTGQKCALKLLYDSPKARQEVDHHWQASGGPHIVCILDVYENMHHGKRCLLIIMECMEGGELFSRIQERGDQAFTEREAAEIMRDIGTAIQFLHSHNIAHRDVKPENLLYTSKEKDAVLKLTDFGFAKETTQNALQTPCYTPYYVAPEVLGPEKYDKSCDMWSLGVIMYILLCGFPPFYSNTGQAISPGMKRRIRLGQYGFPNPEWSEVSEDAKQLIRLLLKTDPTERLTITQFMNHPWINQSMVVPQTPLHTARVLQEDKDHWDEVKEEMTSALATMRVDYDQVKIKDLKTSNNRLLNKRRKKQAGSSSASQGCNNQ
Sequence of Protein kinase C zeta type (Q05513 whole entry): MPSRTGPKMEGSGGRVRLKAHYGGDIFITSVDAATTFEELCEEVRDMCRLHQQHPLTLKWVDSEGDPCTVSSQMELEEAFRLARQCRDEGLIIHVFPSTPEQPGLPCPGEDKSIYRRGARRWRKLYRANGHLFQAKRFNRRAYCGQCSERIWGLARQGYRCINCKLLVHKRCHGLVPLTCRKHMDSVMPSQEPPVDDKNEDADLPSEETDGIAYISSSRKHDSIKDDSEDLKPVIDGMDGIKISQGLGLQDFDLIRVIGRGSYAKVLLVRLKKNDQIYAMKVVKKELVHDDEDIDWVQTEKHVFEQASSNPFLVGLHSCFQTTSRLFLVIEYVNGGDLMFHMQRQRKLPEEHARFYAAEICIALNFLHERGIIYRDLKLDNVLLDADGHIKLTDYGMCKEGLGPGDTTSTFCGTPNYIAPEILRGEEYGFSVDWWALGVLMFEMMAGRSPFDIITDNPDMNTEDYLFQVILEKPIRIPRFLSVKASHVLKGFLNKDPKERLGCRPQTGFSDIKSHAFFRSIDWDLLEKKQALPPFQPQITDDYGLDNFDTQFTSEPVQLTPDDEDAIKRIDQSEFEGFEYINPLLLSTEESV
Sequence of Lymphokine-activated killer T-cell-originated protein kinase (Q96KB5 whole entry): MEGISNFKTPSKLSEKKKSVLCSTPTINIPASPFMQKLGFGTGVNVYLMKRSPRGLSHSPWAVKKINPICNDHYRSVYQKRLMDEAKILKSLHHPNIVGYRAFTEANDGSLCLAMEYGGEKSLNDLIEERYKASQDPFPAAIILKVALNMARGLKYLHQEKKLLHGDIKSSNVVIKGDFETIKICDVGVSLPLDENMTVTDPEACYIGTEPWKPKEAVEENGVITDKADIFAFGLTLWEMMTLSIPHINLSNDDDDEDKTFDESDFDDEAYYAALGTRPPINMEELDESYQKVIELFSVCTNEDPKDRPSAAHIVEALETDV

For orientation: AC50 means the concentration at which the activity in the assay is half-maximal. The term CC50 denotes the concentration that lowers cell viability or growth by half. On to `Nc1nc(Nc2ccccc2)sc1C(=O)c1ccccc1`, for which the AC50 in assay [1] was 2.27 µM (active); in [2] it was 0.168 µM (active); in assay [3] it was 0.19 µM (active); in assay [5] it was 0.811 µM (active); in assay [6], 0.036 µM (active); in [7], 18.9 µM (active). Moreover, the CC50 in [4] is 14 µM (active).

What is called Ki is a dissociation constant, usually derived from enzyme kinetics or from competition with a known ligand. On to `COc1cc2c(Oc3ccc4[nH]c(C)cc4c3F)ncnc2cc1OCCCN1CCCC1` [CEDIRANIB], for which the Ki in assay [8] was > 3.98 µM (inactive); in assay [9] it was 0.0501 µM (active); in [10], 0.0398 µM (active); in [11] it was > 10 µM (inactive); in assay [12], > 7.94 µM (inactive); in assay [13], > 1.58 µM (inactive). For the same compound, the Ki in assay [14] is > 7.94 µM (inactive); in assay [15] it was > 7.94 µM (inactive); in [16], 0.501 µM (active); in [17], > 10 µM (inactive); in [18] it was > 7.94 µM (inactive); in [19], > 1.26 µM (inactive). For the same compound, the Ki was > 3.98 µM (inactive) in assay [20], > 6.31 µM (inactive) in assay [21] and 0.316 µM (active) in assay [22].
